How the values were obtained:
Format in all cases: in vivo
[1] = tested on: Echinochloa crus-galli; assay: Test Example 13: herbicidal effect test by soil treatment in upland field; settings: 120 g/10a, 14 days after treatment
Method in brief: (§1)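 Field alluvial soil in 36 cm^2 pots had 20 seeds of each weed mixed into its top 1 cm. One day after sowing, a water-diluted emulsifiable concentrate was sprayed onto the soil at 100 liter per 10 are (120 g active ingredient per 10 are), with two replicates. Weed suppression (%) was assessed after 14 days.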

[2] = tested on: Amaranthus viridis; assay: as above; settings: 120 g/10a, 14 days after treatment
Method in brief: as §1

[3] = tested on: crabgrass; assay: as above; settings: 120 g/10a, 14 days after treatment
Method in brief: as §1

[4] = tested on: Chenopodium album; assay: as above; settings: 120 g/10a, 14 days after treatment
Method in brief: as §1

[5] = tested on: Scirpus juncoides; assay: Test Example 11: herbicidal effect test by soil treatment in paddy field; settings: 120 g/10a active ingredient, 14 days after treatment
Method in brief: (§2)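 Puddled paddy soil with N:P:K 17:17:17 fertilizer in Wagner pots; 30 seeds per species sown at 0–1 cm, flooded to about 3 cm, kept in a glass greenhouse. Water-diluted emulsifiable concentrate dripped in immediately after sowing at 120 g a.i. per 10 are. Suppression from dry weight versus untreated at 14 days.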

[6] = tested on: Echinochloa crus-galli; assay: as above; settings: 120 g/10a active ingredient, 14 days after treatment
Method in brief: as §2

[7] = tested on: Monochoria vaginalis; assay: as above; settings: 120 g/10a active ingredient, 14 days after treatment
Method in brief: as §2

[8] = tested on: Lindernia pyxidaria; assay: as above; settings: 120 g/10a active ingredient, 14 days after treatment
Method in brief: as §2

[9] = tested on: Scirpus juncoides; assay: Test Example 12: herbicidal effect test by treatment during growing period in paddy field; settings: 120 g/10a; treatment seven days after sowing in flooded paddy pot; assessed 14 days after treatment
Method in brief: (§3)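 Puddled, fertilized paddy soil in Wagner pots, sown with 30 seeds per species at 0–1 cm and flooded to ~3 cm in a glass greenhouse. Emulsifiable concentrate dripped into water 7 days after sowing at 120 g a.i. per 10 are. Suppression % from dry weight vs untreated, 14 days post-treatment, two replicates.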

[10] = tested on: Echinochloa crus-galli; assay: as above; settings: 120 g/10a; treatment seven days after sowing in flooded paddy pot; assessed 14 days after treatment
Method in brief: as §3

[11] = tested on: Monochoria vaginalis; assay: as above; settings: 120 g/10a; treatment seven days after sowing in flooded paddy pot; assessed 14 days after treatment
Method in brief: as §3

[12] = tested on: Lindernia pyxidaria; assay: as above; settings: 120 g/10a; treatment seven days after sowing in flooded paddy pot; assessed 14 days after treatment
Method in brief: as §3

[13] = tested on: Echinochloa crus-galli; assay: Test Example 14: herbicidal effect test by foliage treatment in upland field; settings: 7 days after sowing, 120 g/10a, 14 days after treatment
Method in brief: (§4)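 Emulsifiable concentrate, water-diluted, is applied post-emergence to 7-day-old sowings in field soil at 120 g active ingredient per 10 are. The weed suppression rate derives from average dry weights versus untreated controls, measured 14 days later.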

[14] = tested on: Amaranthus viridis; assay: as above; settings: 7 days after sowing, 120 g/10a, 14 days after treatment
Method in brief: as §4

[15] = tested on: crabgrass; assay: as above; settings: 7 days after sowing, 120 g/10a, 14 days after treatment
Method in brief: as §4

[16] = tested on: Chenopodium album; assay: as above; settings: 7 days after sowing, 120 g/10a, 14 days after treatment
Method in brief: as §4

Structure (SMILES) | herbicidal effect, Echinochloa crus-galli [1] | herbicidal effect, Amaranthus viridis [2] | herbicidal effect, Crabgrass [3] | herbicidal effect, Chenopodium album [4] | Weed suppression rate (%) Scirpus juncoides [5] | Weed suppression rate (%) Echinochloa crus-galli [6] | Weed suppression rate (%) Monochoria vaginalis [7] | Weed suppression rate (%) Lindemia pyxidaria [8] | Weed suppression rate (%) Scirpus juncoides [9] | Weed suppression rate (%) Echinochloa crus-galli [10] | Weed suppression rate (%) Monochoria vaginalis [11] | Weed suppression rate (%) Lindemia pyxidaria [12] | herbicidal effect, Echinochloa crus-galli [13] | herbicidal effect, Amaranthus viridis [14] | herbicidal effect, Crabgrass [15] | herbicidal effect, Chenopodium album [16]
CC(C)N(C(=O)n1cnn(S(=O)(=O)C(C)C)c1=O)c1ccc(F)cc1Cl [Compound 11-66] | 80% | 90% | 90% | 80% | 90% | 90% | 80% | 80% | 90% | 90% | 80% | 80% | 80% | 90% | 90% | 80%
Cc1ccc(N(C(=O)n2cnn(S(=O)(=O)C(C)C)c2=O)C(C)C)c(F)c1 [Compound 11-73] | 80% | 90% | 90% | 80% | 90% | 90% | 80% | 80% | 90% | 90% | 80% | 80% | 80% | 90% | 90% | 80%
CC(C)N(C(=O)n1cnn(S(=O)(=O)C(C)C)c1=O)c1ccc(Cl)cn1 [Compound 11-85] | 100% | 90% | 100% | 60% | 90% | 90% | 80% | 80% | 70% | 90% | 90% | 90% | 80% | 90% | 90% | 80%
CC(C)N(C(=O)n1cnn(S(=O)(=O)C(C)C)c1=O)c1ncc(Cl)cc1Cl [Compound 11-86] | 80% | 90% | 90% | 80% | 90% | 90% | 80% | 80% | 90% | 90% | 90% | 90% | 80% | 90% | 90% | 80%
CCC(C)S(=O)(=O)n1ncn(C(=O)N(c2ccc(F)cc2F)C(C)C)c1=O (centres unmarked) [Compound 11-93] | 80% | 90% | 90% | 80% | 90% | 90% | 90% | 90% | 90% | 90% | 90% | 80% | 80% | 90% | 90% | 80%

Reference: patent publication US11076595B2, “1-(n,n-disubstituted carbamoyl) 4-(substituted sulfonyl)triazolin-5-one derivative, 4-(n,n-disubstituted carbamoyl) 1-(substituted sulfonyl)triazolin-5-one derivative, and herbicide containing said derivative as active ingredient” (HOKKO CHEMICAL INDUSTRY CO., LTD., priority 2017, dated 2021)
